Assay [1] concerns PI3K-α (PIK3CA) in MDA-MB-453 cells. The assay is described as follows: PI3K-alpha kinase (PIK3CA) activity in vitro cell based assay, MDA-MB-453 cells, AlphaLisa SureFire. The settings on record: Homo sapiens, MDA-MB-453, 3 h, 0% FBS, 3 hours treatment, relative IC50. The method, boiled down:
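MDA-MB-453 cells in serum-free MEM with 1 μg/mL insulin treated 3 h with 10-point 1:3 compound dilutions, 0.3% DMSO. Lysates read by AlphaLisa SureFire; percent inhibition relative to DMSO (max) and 1 μM GDC-0032 (min), duplicate means fitted to 4-parameter logistic for relative IC50.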
Background: In Alpha technology, singlet oxygen from a donor bead excites a nearby acceptor bead.

Assay [2] addresses T1, human full length PIK3KA Wild-type (p110α/p85α complex) (Homo sapiens, UniProt P42336).
T1 construct: Recombinant, catalytically active human full length PIK3KA Wild-type and H1047R mutant were purchased as 1:1 complex; 6xHis (N); purchased EMD Millipore Sigma 14-602M
The assay is described as follows: PI3K-alpha kinase (PIK3CA) biochemical activity, wild-type, ADP-Glo. The settings on record: PI3K-α (PIK3CA) biochemical, Soy PI lipid substrate. The method, boiled down:
(§1)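 Full-length His-p110α/p85α complex, wild-type or H1047R, 1–5 nM, preincubated with compound 1 h at 27 °C in HEPES pH 7.4, 25 mM MgCl2, 0.01% Triton X-100, 1% DMSO. Reaction with 20 μM ATP and 50 μM PIP2diC8 or soy PI at 27 °C to ~10% ATP conversion; ADP-Glo luminescence. IC50 from 10-point four-parameter logistic fit.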
A general note: In ADP-Glo the light output rises with the ADP produced.

In assay [3] the target is T2, human full length PIK3KA H1047R mutant (p110α/p85α complex) (Homo sapiens, UniProt P42336, H1047R).
T2 construct: Recombinant, catalytically active human full length PIK3KA Wild-type and H1047R mutant were purchased as 1:1 complex; 6xHis (N); purchased EMD Millipore Sigma 14-792M
In words: PI3K-alpha kinase (PIK3CA) biochemical activity, H1047R mutant, ADP-Glo. The settings on record: PI3K-α (PIK3CA) biochemical, H1047R mutant, Soy PI lipid substrate. The method in brief: as §1

Molecules are shown by their SMILES. pIC50: −log10 of the molar value. Bounds are passed on as bounds.

Broadly, the pIC50 is −log10 of the IC50, conventionally taken in molar units. Low readings indicate a large IC50, high ones a small IC50.

T2 sequence (P42336 whole entry H1047R): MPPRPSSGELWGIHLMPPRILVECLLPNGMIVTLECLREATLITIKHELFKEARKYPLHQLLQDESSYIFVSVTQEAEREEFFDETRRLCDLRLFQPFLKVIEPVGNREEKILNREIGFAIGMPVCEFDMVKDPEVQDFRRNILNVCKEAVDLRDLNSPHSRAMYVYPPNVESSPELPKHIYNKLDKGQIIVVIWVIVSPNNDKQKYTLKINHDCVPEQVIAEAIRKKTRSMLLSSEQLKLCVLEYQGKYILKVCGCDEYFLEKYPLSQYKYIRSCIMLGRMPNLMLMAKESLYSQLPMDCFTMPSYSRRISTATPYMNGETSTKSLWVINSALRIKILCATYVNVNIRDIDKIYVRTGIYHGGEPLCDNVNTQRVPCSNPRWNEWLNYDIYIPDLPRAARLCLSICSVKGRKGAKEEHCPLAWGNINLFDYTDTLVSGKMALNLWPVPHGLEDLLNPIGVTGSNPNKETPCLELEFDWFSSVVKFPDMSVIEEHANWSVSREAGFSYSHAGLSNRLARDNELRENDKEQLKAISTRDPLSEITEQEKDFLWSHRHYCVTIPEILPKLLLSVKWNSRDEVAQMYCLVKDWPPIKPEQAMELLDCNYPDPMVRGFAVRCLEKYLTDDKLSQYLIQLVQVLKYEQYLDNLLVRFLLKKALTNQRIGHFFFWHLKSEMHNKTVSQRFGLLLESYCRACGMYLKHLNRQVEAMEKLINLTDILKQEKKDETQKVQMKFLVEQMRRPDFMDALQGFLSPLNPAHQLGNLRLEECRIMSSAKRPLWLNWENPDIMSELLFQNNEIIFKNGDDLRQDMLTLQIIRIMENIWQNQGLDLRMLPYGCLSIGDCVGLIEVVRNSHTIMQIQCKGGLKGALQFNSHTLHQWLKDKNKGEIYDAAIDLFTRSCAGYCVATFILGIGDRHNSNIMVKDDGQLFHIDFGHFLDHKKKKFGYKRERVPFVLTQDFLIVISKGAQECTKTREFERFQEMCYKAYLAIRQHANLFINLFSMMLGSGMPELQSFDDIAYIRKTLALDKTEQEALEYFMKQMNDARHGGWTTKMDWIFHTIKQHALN
T2 sequence (P27986 whole entry partner): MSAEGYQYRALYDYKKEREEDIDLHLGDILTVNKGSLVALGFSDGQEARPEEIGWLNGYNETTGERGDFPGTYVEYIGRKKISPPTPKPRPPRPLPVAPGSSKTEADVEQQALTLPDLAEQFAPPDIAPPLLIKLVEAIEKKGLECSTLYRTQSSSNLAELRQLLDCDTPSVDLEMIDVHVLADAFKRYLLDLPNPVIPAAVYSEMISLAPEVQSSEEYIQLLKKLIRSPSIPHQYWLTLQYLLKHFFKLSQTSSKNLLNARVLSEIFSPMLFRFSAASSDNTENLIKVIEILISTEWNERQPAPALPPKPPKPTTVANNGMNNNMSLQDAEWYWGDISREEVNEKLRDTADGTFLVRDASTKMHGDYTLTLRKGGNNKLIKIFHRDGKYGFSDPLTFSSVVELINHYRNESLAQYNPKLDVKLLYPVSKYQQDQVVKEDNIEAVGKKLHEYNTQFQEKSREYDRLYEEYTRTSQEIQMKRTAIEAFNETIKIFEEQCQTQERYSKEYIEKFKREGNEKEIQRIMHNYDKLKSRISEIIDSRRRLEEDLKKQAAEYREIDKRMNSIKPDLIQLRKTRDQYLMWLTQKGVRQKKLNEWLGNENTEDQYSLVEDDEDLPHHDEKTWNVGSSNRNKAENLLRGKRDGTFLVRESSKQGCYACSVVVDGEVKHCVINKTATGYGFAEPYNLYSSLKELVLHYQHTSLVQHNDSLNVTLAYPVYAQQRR

Consider `Cc1cc([C@@H](C)Nc2cccc(F)c2C(=O)O)c2oc(-c3ccc(F)cc3F)c(C)c(=O)c2c1` [Example 130, 2-[[(1R)-1-[2-(2,4-Difluorophenyl)-3,6-dimethyl-4-oxo-chromen-8-yl]ethyl]amino]-6-fluoro-benzoic acid 2,2,2-trifluoroacetic acid], for which the pIC50 in assay [1] was greater than 7.30; in assay [2] it was 5.30 to 6.00; in assay [3], greater than 6.30.
In the same order, the values of `Cc1cc([C@@H](C)Nc2ccc(Cl)nc2C(=O)O)c2oc(-c3ccc(F)cc3F)c(C)c(=O)c2c1` [Example 131, 6-Chloro-3-[[(1R)-1-[2-(2,4-difluorophenyl)-3,6-dimethyl-4-oxo-chromen-8-yl]ethyl]amino]pyridine-2-carboxylic acid 2,2,2-trifluoroacetic acid] are greater than 7.30, 5.30 to 6.00 and greater than 6.30.
In the same order, the values of `Cc1cc([C@@H](C)Nc2ccc(C)nc2C(=O)O)c2oc(-c3cccc(F)c3)c(C)c(=O)c2c1` [Example 134, 3-[[(1R)-1-[2-(3-Fluorophenyl)-3,6-dimethyl-4-oxo-chromen-8-yl]ethyl]amino]-6-methyl-pyridine-2-carboxylic acid] are greater than 7.30, 5.00 to 5.30 and greater than 6.30.
The like results for `COc1ccc(N[C@H](C)c2cc(C)cc3c(=O)c(C)c(-c4ccccc4)oc23)c(C(=O)O)n1` [Example 135, 6-Methoxy-3-[[(1R)-1-(3,6-dimethyl-4-oxo-2-phenyl-chromen-8-yl)ethyl]amino]pyridine-2-carboxylic acid 2,2,2-trifluoroacetic acid] were, in that order, greater than 7.30, 6.00 to 6.30 and greater than 6.30.
`Cc1cc([C@@H](C)Nc2cccnc2C(=O)O)c2oc(-c3cccc(F)c3)c(C)c(=O)c2c1` [Example 136, 3-[[(1R)-1-[2-(3-Fluorophenyl)-3,6-dimethyl-4-oxo-chromen-8-yl]ethyl]amino]pyridine-2-carboxylic acid]: the figures for the pIC50 in assay [1], in assay [2] and in assay [3] were 7.00 to 7.30, 5.00 to 5.30 and 6.00 to 6.30, respectively.
In the same order, the values of `Cc1cc([C@@H](C)Nc2ncccc2C(=O)O)c2oc(-c3ccccc3)c(C)c(=O)c2c1` [Example 137, 2-[[(1R)-1-(3,6-Dimethyl-4-oxo-2-phenyl-chromen-8-yl)ethyl]amino]pyridine-3-carboxylic acid] are greater than 7.30, 5.30 to 6.00 and greater than 6.30.
The like results for `Cc1cc([C@@H](C)Nc2cnccc2C(=O)O)c2oc(-c3ccccc3)c(C)c(=O)c2c1` [Example 138, 3-[[(1R)-1-(3,6-Dimethyl-4-oxo-2-phenyl-chromen-8-yl)ethyl]amino]pyridine-4-carboxylic acid] were, in that order, 6.30 to 7.00, less than 5.00 and greater than 6.30.
The like results for `Cc1cc(C(C)Nc2ccc(Cl)nc2C(=O)O)c2oc(-c3ccccc3)c(I)c(=O)c2c1` (stereo not drawn) [Example 140, 6-Chloro-3-[1-(3-iodo-6-methyl-4-oxo-2-phenyl-chromen-8-yl)ethylamino]pyridine-2-carboxylic acid 2,2,2-trifluoroacetic acid] were, in that order, greater than 7.30, 5.30 to 6.00 and greater than 6.30.
For `Cc1cc([C@@H](C)Nc2ccc(Br)nc2C(=O)O)c2oc(-c3cccc(C#N)c3)c(C)c(=O)c2c1` [Example 141, 6-Bromo-3-[[(1R)-1-[2-(3-cyanophenyl)-3,6-dimethyl-4-oxo-chromen-8-yl]ethyl]amino]pyridine-2-carboxylic acid], the pIC50 is greater than 7.30 in assay [1], greater than 6.30 in assay [2] and greater than 6.30 in assay [3].
Take `Cc1cc([C@@H](C)Nc2cccnc2C(=O)O)c2oc(-c3ccccc3F)c(C)c(=O)c2c1` [Example 142, 3-[[(1R)-1-[2-(2-Fluorophenyl)-3,6-dimethyl-4-oxo-chromen-8-yl]ethyl]amino]pyridine-2-carboxylic acid]: the pIC50 in assay [1] is 7.00 to 7.30; in assay [2], less than 5.00; in assay [3], 5.30 to 6.00.
In the same order, the values of `Cc1cc([C@@H](C)Nc2ccc(Cl)cc2C(=O)O)c2oc(-c3cccc(C#N)c3)c(C)c(=O)c2c1` [Example 144, 5-Chloro-2-[[(1R)-1-[2-(3-cyanophenyl)-3,6-dimethyl-4-oxo-chromen-8-yl]ethyl]amino]benzoic acid] are greater than 7.30, 6.00 to 6.30 and greater than 6.30.
The like results for `Cc1cc([C@@H](C)Nc2ccc(Cl)cc2C(=O)O)c2oc(-c3cccc(F)c3)c(C)c(=O)c2c1` [Example 145, 5-Chloro-2-[[(1R)-1-[2-(3-fluorophenyl)-3,6-dimethyl-4-oxo-chromen-8-yl]ethyl]amino]benzoic acid] were, in that order, greater than 7.30, 5.30 to 6.00 and greater than 6.30.
In the same order, the values of `Cc1cc([C@@H](C)Nc2ccc(Cl)cc2C(=O)O)c2oc(-c3ccc(F)c(F)c3)c(C)c(=O)c2c1` [Example 146, 5-Chloro-2-[[(1R)-1-[2-(3,4-difluorophenyl)-3,6-dimethyl-4-oxo-chromen-8-yl]ethyl]amino]benzoic acid] are greater than 7.30, 5.30 to 6.00 and 5.30 to 6.00.
As to `Cc1cc([C@@H](C)Nc2ccc(Cl)cc2C(=O)O)c2oc(-c3ccccc3F)c(C)c(=O)c2c1` [Example 147, 5-Chloro-2-[[(1R)-1-[2-(2-fluorophenyl)-3,6-dimethyl-4-oxo-chromen-8-yl]ethyl]amino]benzoic acid], the figures for the pIC50 in assay [1], in assay [2] and in assay [3] were greater than 7.30, 5.30 to 6.00 and 6.00 to 6.30, respectively.
For `Cc1cc([C@@H](C)Nc2ccc(C)nc2C(=O)O)c2oc(-c3ccccc3F)c(C)c(=O)c2c1` [Example 148, 3-[[(1R)-1-[2-(2-Fluorophenyl)-3,6-dimethyl-4-oxo-chromen-8-yl]ethyl]amino]-6-methyl-pyridine-2-carboxylic acid], the negative logarithm of the IC50 (pIC50) is greater than 7.30 in assay [1], 5.00 to 5.30 in assay [2] and 6.00 to 6.30 in assay [3].
In the same order, the values of `COC(=O)c1ccc(-c2oc3c([C@@H](C)Nc4ccccc4C(=O)O)cc(C)cc3c(=O)c2C)cc1` [Example 149, 2-[[(1R)-1-[2-(4-Methoxycarbonylphenyl)-3,6-dimethyl-4-oxo-chromen-8-yl]ethyl]amino]benzoic acid] are greater than 7.30, 5.30 to 6.00 and greater than 6.30.
The like results for `COC(=O)c1cccc(-c2oc3c([C@@H](C)Nc4ccccc4C(=O)O)cc(C)cc3c(=O)c2C)c1` [Example 150, 2-[[(1R)-1-[2-(3-Methoxycarbonylphenyl)-3,6-dimethyl-4-oxo-chromen-8-yl]ethyl]amino]benzoic acid] were, in that order, greater than 7.30, 5.30 to 6.00 and greater than 6.30.
The like results for `CNC(=O)c1ccc(-c2oc3c([C@@H](C)Nc4ccccc4C(=O)O)cc(C)cc3c(=O)c2C)cc1` [Example 151, 2-[[(1R)-1-[3,6-Dimethyl-2-[4-(methylcarbamoyl)phenyl]-4-oxo-chromen-8-yl]ethyl]amino]benzoic acid] were, in that order, greater than 7.30, 5.30 to 6.00 and greater than 6.30.
As for `CNC(=O)c1cccc(-c2oc3c([C@@H](C)Nc4ccccc4C(=O)O)cc(C)cc3c(=O)c2C)c1` [Example 152, 2-[[(1R)-1-[3,6-Dimethyl-2-[3-(methylcarbamoyl)phenyl]-4-oxo-chromen-8-yl]ethyl]amino]benzoic acid], the values for the pIC50 in assay [1], in assay [2] and in assay [3] were greater than 7.30, less than 5.00 and greater than 6.30, respectively.
The like results for `COc1ncc(N[C@H](C)c2cc(C)cc3c(=O)c(C)c(-c4ccccc4)oc23)c(C(=O)O)n1` [Example 155, 2-Methoxy-5-[[(1R)-1-(3,6-dimethyl-4-oxo-2-phenyl-chromen-8-yl)ethyl]amino]pyrimidine-4-carboxylic acid 2,2,2-trifluoroacetic acid] were, in that order, 6.30 to 7.00, 5.30 to 6.00 and greater than 6.30.
The like results for `Cc1cc([C@@H](C)Nc2ccccc2C(=O)O)c2oc(-c3ccccc3)c(-c3cccnc3)c(=O)c2c1` [Example 156, 2-[[(1R)-1-[6-Methyl-4-oxo-2-phenyl-3-(3-pyridyl)chromen-8-yl]ethyl]amino]benzoic acid 2,2,2-trifluoroacetic acid] were, in that order, 6.30 to 7.00, 5.30 to 6.00 and 6.00 to 6.30.
In the same order, the values of `Cc1cc([C@@H](C)Nc2ccccc2C(=O)O)c2oc(-c3ccc(-c4c[nH]nc4C)cc3)c(C)c(=O)c2c1` [Example 161, 2-[[(1R)-1-[3,6-Dimethyl-2-[4-(3-methyl-1H-pyrazol-4-yl)phenyl]-4-oxo-chromen-8-yl]ethyl]amino]benzoic acid] are greater than 7.30, 6.00 to 6.30 and greater than 6.30.

The record behind these values is patent US11873295B2, “Allosteric chromenone inhibitors of phosphoinositide 3-kinase (PI3K) for the treatment of disease” (Petra Pharma Corporation, priority 2021, dated 2024).
